# From US11345681B1, “Inhibitors of fibroblast growth factor receptor kinases” (Kinnate Biopharma Inc., priority 2020, dated 2022)
# pIC50: −log10 of the molar value.
# Target: Wild type FGFR2 (Homo sapiens (Human), UniProt P21802)
# Experiment: FGFR2 kinase assay (fluorescence-based microfluidic mobility shift assay)
# Format: biochemical
# Settings: wild type FGFR2 0.06 nM, 100 μM ATP, 80 minutes at room temperature; class symbols
# Wild type FGFR2, sequence (P21802 22-821): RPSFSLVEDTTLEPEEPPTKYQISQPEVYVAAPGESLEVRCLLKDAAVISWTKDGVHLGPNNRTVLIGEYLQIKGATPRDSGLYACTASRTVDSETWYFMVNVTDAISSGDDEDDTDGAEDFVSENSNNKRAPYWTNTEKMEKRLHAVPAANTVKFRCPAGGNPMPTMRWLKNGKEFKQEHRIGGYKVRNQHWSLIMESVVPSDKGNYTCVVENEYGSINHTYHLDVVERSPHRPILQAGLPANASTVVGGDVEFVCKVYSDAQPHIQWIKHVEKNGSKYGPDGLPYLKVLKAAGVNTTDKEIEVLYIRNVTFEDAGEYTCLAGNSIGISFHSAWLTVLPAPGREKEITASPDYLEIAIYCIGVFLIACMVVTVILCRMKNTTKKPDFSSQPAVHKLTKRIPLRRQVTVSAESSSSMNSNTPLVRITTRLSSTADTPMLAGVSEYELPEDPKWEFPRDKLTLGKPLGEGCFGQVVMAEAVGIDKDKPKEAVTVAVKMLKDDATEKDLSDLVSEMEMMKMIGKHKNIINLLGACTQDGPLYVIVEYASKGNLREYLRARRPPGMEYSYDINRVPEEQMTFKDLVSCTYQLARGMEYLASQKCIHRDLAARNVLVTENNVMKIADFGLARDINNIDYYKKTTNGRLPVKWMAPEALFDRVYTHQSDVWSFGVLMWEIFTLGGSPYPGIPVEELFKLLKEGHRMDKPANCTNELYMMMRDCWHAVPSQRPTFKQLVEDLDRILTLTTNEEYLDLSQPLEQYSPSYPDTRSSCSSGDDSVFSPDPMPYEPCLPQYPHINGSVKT
row,Compound,pIC50
1,"C=CC(=O)N1C[C@@H](n2nc(C#Cc3cc4nc(C)n(C5CCC5)c4cc3Cl)c(C(N)=O)c2NC)C[C@@H]1COC [Example 233, 1-((3S,5R)-1-Acryloyl-5-(methoxymethyl)pyrrolidin-3-yl)-3-((6-chloro-1-cyclobutyl-2-methyl-1H-benzo[d]imidazol-5-yl)ethynyl)-5-(methylamino)-1H-pyrazole-4-carboxamide]",≥ 7.00
2,"CC#CC(=O)N1C[C@@H](n2nc(C#Cc3c(F)cc4c(ncn4C4CC4)c3F)c(C(N)=O)c2NC)C[C@@H]1COC [Example 185, 1-[(3S,5R)-1-(But-2-ynoyl)-5-(methoxymethyl)pyrrolidin-3-yl]-3-[2-(1-cyclopropyl-4,6-difluoro-1,3-benzodiazol-5-yl)ethynyl]-5-(methylamino)pyrazole-4-carboxamide]",≥ 7.00
3,"CNc1c(C(N)=O)c(C#Cc2cc3ncn(C4CC4)c3cc2F)nn1[C@H]1C[C@H](COC)N(C(=O)C#CC(C)(C)O)C1 [Example 203, 3-((1-Cyclopropyl-6-fluoro-1H-benzo[d]imidazol-5-yl)ethynyl)-1-((3S,5R)-1-(4-hydroxy-4-methylpent-2-ynoyl)-5-(methoxymethyl)pyrrolidin-3-yl)-5-(methylamino)-1H-pyrazole-4-carboxamide]",≥ 7.00
4,"C=CC(=O)N1C[C@@H](n2nc(C#Cc3ccc4ccnn4c3)c(C(N)=O)c2NC)C[C@@H]1COC [Example 67, 1-[(3S,5R)-5-(Methoxymethyl)-1-(prop-2-enoyl)pyrrolidin-3-yl]-5-(methylamino)-3-(2-[pyrazolo[1,5-a]pyridin-6-yl]ethynyl)pyrazole-4-carboxamide]",≥ 7.00
5,"C=CC(=O)N1C[C@@H](n2nc(C#Cc3cc4ncn(C)c4cc3Cl)c(C(N)=O)c2NC)C[C@@H]1COC [Example 88, 3-[2-(6-Chloro-1-methyl-1,3-benzodiazol-5-yl)ethynyl]-1-[(3S,5R)-5-(methoxymethyl)-1-(prop-2-enoyl)pyrrolidin-3-yl]-5-(methylamino)pyrazole-4-carboxamide]",≥ 7.00
6,"C=CC(=O)N1C[C@@H](n2nc(C#Cc3cc4ncn(C(F)F)c4cc3F)c(C(N)=O)c2NC)C[C@@H]1COC(F)(F)F [Example 81, 3-[2-[1-(Difluoromethyl)-6-fluoro-1,3-benzodiazol-5-yl]ethynyl]-5-(methylamino)-1-[(3S,5R)-1-(prop-2-enoyl)-5-[(trifluoromethoxy)methyl]pyrrolidin-3-yl]pyrazole-4-carboxamide]",≥ 7.00
7,"C=CC(=O)N1C[C@@H](n2nc(C#Cc3c(F)ccc4c3cnn4C3CC3)c(C(N)=O)c2NC)C[C@@H]1COC [Example 287, 1-((3S,5R)-1-Acryloyl-5-(methoxymethyl)pyrrolidin-3-yl)-3-((1-cyclopropyl-5-fluoro-1H-indazol-4-yl)ethynyl)-5-(methylamino)-1H-pyrazole-4-carboxamide]",≥ 7.00
8,"C=CC(=O)N1C[C@@H](n2nc(C#Cc3cc4ncn(C5CC5)c4cc3Cl)c(C(N)=O)c2NC)C[C@@H]1[C@H](C)O [Example 223, 3-[2-(6-chloro-1-cyclopropyl-1,3-benzodiazol-5-yl)ethynyl]-1-[(3S,5R)-5-[(1S)-1-hydroxyethyl]-1-(prop-2-enoyl)pyrrolidin-3-yl]-5-(methylamino)pyrazole-4-carboxamide]",≥ 7.00
9,"C=CC(=O)N1C[C@@H](n2nc(C#Cc3c(F)cc4c(nc(C)n4C)c3F)c(C(N)=O)c2NC)C[C@@H]1COC [Example 18, 1-((3S,5R)-1-acryloyl-5-(methoxymethyl)pyrrolidin-3-yl)-3-((4,6-difluoro-1,2-dimethyl-1H-benzo[d]imidazol-5-yl)ethynyl)-5-(methylamino)-1H-pyrazole-4-carboxamide]",≥ 7.00
10,"C#CC(=O)N1C[C@@H](n2nc(C#Cc3cc4ncn(C5CC5)c4cc3F)c(C(N)=O)c2NC)C[C@@H]1COC [Example 182, 3-((1-Cyclopropyl-6-fluoro-1H-benzo[d]imidazol-5-yl)ethynyl)-1-((3S,5R)-5-(methoxymethyl)-1-propioloylpyrrolidin-3-yl)-5-(methylamino)-1H-pyrazole-4-carboxamide]",≥ 7.00
11,"C=CC(=O)N1C[C@@H](n2nc(C#Cc3cc4nc(C)n(C5COC5)c4cc3Cl)c(C(N)=O)c2NC)C[C@@H]1COC [Example 249, 3-{2-[6-chloro-2-methyl-1-(oxetan-3-yl)-1,3-benzodiazol-5-yl]ethynyl}-1-[(3S,5R)-5-(methoxymethyl)-1-(prop-2-enoyl)pyrrolidin-3-yl]-5-(methylamino)pyrazole-4-carboxamide]",≥ 7.00
12,"C=CC(=O)N1CC(n2nc(C#Cc3cc4ncn(CC)c4cc3Cl)c(C(N)=O)c2NC)C1 [Example 192, 3-[2-(6-chloro-1-ethyl-1,3-benzodiazol-5-yl)ethynyl]-5-(methylamino)-1-[1-(prop-2-enoyl)azetidin-3-yl]pyrazole-4-carboxamide]",≥ 7.00
13,"C=CC(=O)N1C[C@@H](n2nc(C#Cc3c(F)cc4c(ncn4CC)c3F)c(C(N)=O)c2NCC2CC2)C[C@@H]1COC [Example 109, 5-[(Cyclopropylmethyl)amino]-3-[2-(1-ethyl-4,6-difluoro-1,3-benzodiazol-5-yl)ethynyl]-1-[(3S,5R)-5-(methoxymethyl)-1-(prop-2-enoyl)pyrrolidin-3-yl]pyrazole-4-carboxamide]",≥ 7.00
14,"C=CC(=O)N1C[C@@H](n2nc(C#Cc3cc4ncn(C5CC5)c4cc3F)c(C(N)=O)c2N)C[C@@H]1CO [Example 207, 5-Amino-3-[2-(1-cyclopropyl-6-fluoro-1,3-benzodiazol-5-yl)ethynyl]-1-[(3S,5R)-5-(hydroxymethyl)-1-(prop-2-enoyl)pyrrolidin-3-yl]pyrazole-4-carboxamide]",≥ 7.00
15,"C=CC(=O)N1C[C@@H](n2nc(C#Cc3cc4ncn(C5CC5)c4c(F)c3F)c(C(N)=O)c2NC)C[C@@H]1COC [Example 151, 3-[2-(1-Cyclopropy-6,7-difluoro-1,3-benzodiazol-5-yl)ethynyl]-1-[(3S,5R)-5-(methoxymethyl)-1-(prop-2-enoyl)pyrrolidin-3-yl]-5-(methylamino)pyrazole-4-carboxamide]",≥ 7.00
16,"C=CC(=O)N1C[C@@H](n2nc(C#Cc3cccc4c3cnn4C3CC3)c(C(N)=O)c2NC)C[C@@H]1COC [Example 276, 3-[2-(1-Cyclopropylindazol-4-yl)ethynyl]-1-[(3S,5R)-5-(methoxymethyl)-1-(prop-2-enoyl)pyrrolidin-3-yl]-5-(methylamino)pyrazole-4-carboxamide]",≥ 7.00
17,"C=CC(=O)N1C[C@@H](n2nc(C#Cc3cc4c(cc3F)OCO4)c(C(N)=O)c2NC)C[C@@H]1COC [Example 254, 3-[2-(6-Fluoro-2H-1,3-benzodioxol-5-yl)ethynyl]-1-[(3S,5R)-5-(methoxymethyl)-1-(prop-2-enoyl)pyrrolidin-3-yl]-5-(methylamino)pyrazole-4-carboxamide]",≥ 7.00
18,"C=CC(=O)N1C[C@@H](n2nc(C#Cc3cc4ncn(CC)c4c(F)c3Cl)c(C(N)=O)c2NC)C[C@@H]1COC [Example 126, 3-[2-(6-Chloro-1-ethyl-7-fluoro-1,3-benzodiazol-5-yl)ethynyl]-1-[(3S,5R)-5-(methoxymethyl)-1-(prop-2-enoyl)pyrrolidin-3-yl]-5-(methylamino)pyrazole-4-carboxamide]",≥ 7.00
19,"C=CC(=O)N1C[C@@H](n2nc(C#Cc3cc4nc(C)n(C5CC5)c4cc3F)c(C(N)=O)c2NC)C[C@@H]1[C@H](C)O [Example 225, 3-[2-(1-Cyclopropyl-6-fluoro-2-methyl-1,3-benzodiazol-5-yl)ethynyl]-1-[(3S,5R)-5-[(1S)-1-hydroxyethyl]-1-(prop-2-enoyl)pyrrolidin-3-yl]-5-(methylamino)pyrazole-4-carboxamide]",≥ 7.00
20,"C=CC(=O)N1C[C@@H](n2nc(C#Cc3c(F)cc4c(ncn4C(F)F)c3F)c(C(N)=O)c2NC)C[C@@H]1COC [Example 30, 1-((3S,5R)-1-acryloyl-5-(methoxymethyl)pyrrolidin-3-yl)-3-((1-(difluoromethyl)-4,6-difluoro-1H-benzo[d]imidazol-5-yl)ethynyl)-5-(methylamino)-1H-pyrazole-4-carboxamide]",≥ 7.00
21,"C=CC(=O)N1C[C@@H](n2nc(C#Cc3cc4ncn([C@@H]5CC5(F)F)c4cc3Cl)c(C(N)=O)c2NC)C[C@@H]1COC (single isomer, unassigned) [Example 279]",≥ 7.00
22,"C=CC(=O)N1C[C@@H](n2nc(C#Cc3cc4nc(C)n(C5CC5)c4cc3Cl)c(C(N)=O)c2N)C[C@@H]1COC [Example 214, 5-Amino-3-[2-(6-chloro-1-cyclopropyl-2-methyl-1,3-benzodiazol-5-yl)ethynyl]-1-[(3S,5R)-5-(methoxymethyl)-1-(prop-2-enoyl)pyrrolidin-3-yl]pyrazole-4-carboxamide]",≥ 7.00
23,"C=CC(=O)N1C[C@@H](n2nc(C#Cc3ccn4ccnc4c3)c(C(N)=O)c2NC)C[C@@H]1COC [Example 54, 1-((3S,5R)-1-Acryloyl-5-(methoxymethyl)pyrrolidin-3-yl)-3-(imidazo[1,2-a]pyridin-7-ylethynyl)-5-(methylamino)-1H-pyrazole-4-carboxamide]",≥ 7.00
24,"C=CC(=O)N1C[C@@H](n2cc(C#Cc3cc(F)c4c(c3)ncn4C)c(C(N)=O)c2NC)C[C@@H]1COC [Example 121, 1-((3S,5S)-1-Acryloyl-5-(methoxymethy)pyrrolidin-3-yl)-3-((7-fluoro-1-methyl-1H-benzo[d]imidazol-5-yl)ethynyl)-5-(methylamino)-1H-pyrazole-4-carboxamide]",≥ 7.00
25,"C=CC(=O)N1CC(n2nc(C#Cc3c(F)cc4c(ncn4C4CC4)c3F)c(C(N)=O)c2NC)C1 [Example 193, 3-[2-(1-Cyclopropyl-4,6-difluoro-1,3-benzodiazol-5-yl)ethynyl]-5-(methylamino)-1-[1-(prop-2-enoyl)azetidin-3-yl]pyrazole-4-carboxamide]",≥ 7.00
26,"C=CC(=O)N1C[C@@H](n2nc(C#Cc3cc4c(cc3F)ncn4C(F)F)c(C(N)=O)c2NC)C[C@@H]1COC [Example 76, 3-[2-[3-(Difluoromethyl)-6-fluoro-1,3-benzodiazol-5-yl]ethynyl]-1-[(3S,5R)-5-(methoxymethyl)-1-(prop-2-enoyl)pyrrolidin-3-yl]-5-(methylamino)pyrazole-4-carboxamide]",≥ 7.00
